# PMC11123841, “Discovery and Synthesis of Hydroxy-L-Proline Blockers of the Neutral Amino Acid Transporters SLC1A4 (ASCT1) and SLC1A5 (ASCT2)” (Molecules, 2024)
# What was measured:
# SLC1A4 [1] = biological target: T1, SLC1A4 (Homo sapiens, UniProt P43007); assay: [3H]L-alanine heteroexchange (trans-stimulation) in preloaded oocytes; assay type: cell-based; settings: 3 µM BPOHP, 1 mM L-alanine
# T1 construct: expressed in transfected cells; host or cells: Xenopus laevis oocytes (cRNA injection)
# T1 sequence (P43007 1-532): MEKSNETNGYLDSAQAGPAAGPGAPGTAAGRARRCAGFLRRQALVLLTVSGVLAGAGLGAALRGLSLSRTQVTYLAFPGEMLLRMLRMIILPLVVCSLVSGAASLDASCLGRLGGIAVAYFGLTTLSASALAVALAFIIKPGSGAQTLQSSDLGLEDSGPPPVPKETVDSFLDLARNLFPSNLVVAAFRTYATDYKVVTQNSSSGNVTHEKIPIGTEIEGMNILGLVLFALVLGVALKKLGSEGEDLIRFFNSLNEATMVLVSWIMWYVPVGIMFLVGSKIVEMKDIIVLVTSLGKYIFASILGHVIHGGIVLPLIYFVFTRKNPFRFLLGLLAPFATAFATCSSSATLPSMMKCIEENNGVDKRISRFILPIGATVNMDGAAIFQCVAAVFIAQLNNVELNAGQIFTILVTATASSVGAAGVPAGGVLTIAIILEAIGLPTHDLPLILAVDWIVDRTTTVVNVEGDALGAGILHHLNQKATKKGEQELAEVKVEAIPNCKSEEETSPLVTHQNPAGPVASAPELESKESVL
# Description: (§1) Uptake was halted by washing 3 times with 4 °C ND96 buffer. Oocytes were then lysed in 0.1% Triton X-100, and radioactivity was counted via liquid scintillation. Dose response curves were generated by fitting fractional inhibition (I) to the expression I = Imax × [inhibitor]/([inhibitor] + IC50).
# SLC1A5 = biological target: T2, SLC1A5 (Mus musculus, UniProt P51912); assay: as above; assay type: cell-based; settings: 3 µM BPOHP, 1 mM L-alanine
# T2 construct: expressed in transfected cells; host or cells: Xenopus laevis oocytes (cRNA injection)
# T2 sequence (P51912 1-553): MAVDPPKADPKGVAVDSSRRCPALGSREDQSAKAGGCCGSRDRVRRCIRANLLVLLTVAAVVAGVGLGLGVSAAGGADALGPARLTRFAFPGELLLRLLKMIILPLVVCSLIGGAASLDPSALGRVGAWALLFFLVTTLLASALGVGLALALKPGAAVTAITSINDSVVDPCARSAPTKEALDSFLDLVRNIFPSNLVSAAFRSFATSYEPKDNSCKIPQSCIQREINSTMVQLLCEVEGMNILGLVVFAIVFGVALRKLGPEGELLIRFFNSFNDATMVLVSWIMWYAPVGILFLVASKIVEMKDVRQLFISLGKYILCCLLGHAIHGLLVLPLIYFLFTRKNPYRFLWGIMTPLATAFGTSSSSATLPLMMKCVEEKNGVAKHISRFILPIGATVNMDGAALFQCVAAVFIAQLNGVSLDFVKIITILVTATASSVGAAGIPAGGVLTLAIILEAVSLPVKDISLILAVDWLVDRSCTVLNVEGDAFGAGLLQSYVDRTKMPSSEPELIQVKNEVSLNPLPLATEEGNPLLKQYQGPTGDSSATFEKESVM
# Description: as §1
# SLC1A4 [2] = biological target: T1, SLC1A4; assay: [3H]D-serine uptake in oocytes; assay type: cell-based; settings: [3H]D-serine 100 nM, 10 µM BPOHP
# Description: page 6: vi Figure SM-3A. […] with no effect on SL[…] neutral amino acid transporters SLC38A1(ATA1), SLC38A2 (ATA2), and SLC38A4 (ATA3). SM-3B. […] by application of 10μM BPOHP. Figure SM-4. Tosic acid approach to compound 12c. (i) Tosylic acid 0.1M in THF 60◦C. (ii) […] S.Figure 3 A. […] SLC38A1(ATA1), SLC38A2 (ATA2), and SLC38A4 (ATA3). B. […] SLC7A10+SLC3A2 (asc1+4F2). […]
# [3] = test system: glutamate transporters (SLC1A 1–3); assay: Inhibition of the glutamate transporters, general statement; assay type: cell-based, human
# Description: BPOHP activity was evaluated against the glutamate transporters paralogs within the SLC1A gene family (SLC1A 1–3) as well as at neutral amino acid transporters that share common ligand substrates with the SLC1 family including SLC38A1,2, and 4 (ATA1, ATA2, ATA3) and heteromeric transporters SLC7A10+SLC3A2 (asc-1/4f2). […] Finally, radiolabeled [^3H]D-serine uptake was used to assess the electroneutral SLC7A10+SLC3A2 transporter, in which 10 µM BPOHP had no effect (Figure S3).
# High resolution structural models for SLC1A4 and SLC1A5 have been developed. These models reinforce our SLC1A5 homology model derived from the archaeal glutamate transporter. […] While preparing this manuscript, inhibitors of SLC1A5 of a similar design to our alkoxy-hydroxyprolines were reported with ligand-bound high-resolution EM models. These reported EM models help validate our docking solutions with respect to mode of binding within our homology model. We emphasize that our discoveries and modeling of these hydroxyproline/AHPC inhibitors targeting SLC1A4 and SLC1A5, as documented in the public domain [66, 67], predates these reports and is yet to be properly referenced/cited. […] This nonselective SLC1 inhibition, observed with BPOHP, may be attributed to entropic contributions resulting from the biphenyl moiety occupying an adjacent hydrophobic pocket.
smiles,measurement,setting,value
O=C(O)[C@H]1NC[C@@H](OCc2ccc(-c3ccccc3)cc2)[C@@H]1O [14e],[3H]L-alanine exchange,SLC1A4 [1],No exchange was detected
same,[3H]L-alanine exchange,SLC1A5,No exchange was detected
same,effect on [3H]D-serine uptake,SLC1A4 [2],blocked
same,inhibition of the glutamate transporters,[3],low micromolar range
